Experimental data from article PMC12363342, “Investigating the N-terminal linker histone H1 subtypes as substrates for JmjC lysine demethylases” (RSC Chemical Biology, 2025).
Blank lines part the entries; values can stand above or below the substance they belong to. Square brackets hold non-standard residues; d marks the D form. Ends that are not written are not given here. Lys(Me3) = C[N+](C)(C)CCCC[C@H](N)C(=O)O; Lys(Me2) = CN(C)CCCC[C@H](N)C(=O)O

What was measured:
KDM3A = experiment: LC-MS demethylation activity assay, KDM3A; type: biochemical, human; details: 2 μM KDM, 10 μM H1/H3 peptide, 10 μM FAS, 100 μM LAA, 20 μM 2OG, 50 mM HEPES pH 7.5, 2 h, room temperature; for KDM3A demethylation activity, D: D (di-) initial methylation state
Description: (§1) The substrate specificity of JmjC KDMs for H1 was examined using liquid chromatography coupled to mass spectrometry (LC-MS) assays. The H1 peptides (10 μM) were incubated with the recombinant KDM (2 μM) in HEPES buffer at pH 7.5 at room temperature for 2 h, in the presence of ferrous(II) ammonium sulfate (FAS, 10 μM), sodium ascorbate (LAA, 100 μM) and 2OG (20 μM), and then quenched with formic acid. N^ε-Methylated H3K9 and H3K36 peptides were used as positive controls (Fig. 3–5 and Fig. S2–S6).[26]
(§2) The catalytic domains of the JmjC KDMs used were recombinantly produced as reported in either Escherichia coli (KDM4AM1-L359,[38] KDM4DM1-L359,[39] KDM4EM1-R336,[30] KDM6BD1141–E1590[40] and KDM3CL2157-L2500) or Sf9 cells (KDM3AT515–S1317, KDM3B882–1761, and KDM5DM1-D775) as N-terminally His6-tagged proteins. […] To produce proteins, DNA sequences encoding for KDM3A, KDM3B and KDM5D were inserted into the pFB-LIC vector, containing a TEV-protease cleavable N-terminal 6x-histidine tag via ligation independent cloning (LIC). The resultant plasmids were transformed into baculovirus and Sf9 cells ([…]) which were infected with the virus stock. The cells were grown at 27 °C and 90 rpm for 70 h. Cells were then harvested and suspended in 100 mL of lysis buffer (50 mM HEPES-NaOH, pH 7.4, 500 mM NaCl, 20 mM imidazole, 0.5 mM Tris (2-carboxyethyl)phosphine (TCEP), 5% (v/v) glycerol). […] The supernatant was loaded onto a Ni-NTA gravity column, washed with 10 column volume of lysis buffer and eluted using the elution buffer (50 mM HEPES-NaOH, pH 7.4, 500 mM NaCl, 300 mM imidazole, 0.5 mM TCEP, 5% (v/v) glycerol). The eluted protein was further purified using S200 gel filtration column chromatography (50 mM HEPES-NaOH, pH 7.4, 150 mM NaCl, 0.5 mM TCEP and 5% glycerol). Protein purity was analysed by SDS-PAGE and further confirmed by mass spectrometry. Selected fractions were pooled, concentrated and stored at −80 °C.
(§3) All reagents were purchased from Sigma Aldrich and were of the highest grade available. Ferrous(II) ammonium sulfate (FAS) solutions were prepared freshly by dissolving FAS to 400 mM in 20 mM HCl with subsequent dilution to 1 mM using deionized water. Fresh 2OG (10 mM) and LAA (50 mM) solutions were prepared by dissolving the solids in deionised water. All enzyme reactions were performed in 384-well plates (Greiner Bio-One) with a final reaction volume of 50 μL. Substrate mixtures contained 50 mM HEPES pH 7.5, LAA (100 μM), FAS (10 μM), 2OG (20 μM) and an H1 isoform peptide (10 μM). Reactions were initiated by the addition of enzyme to a final concentration of 2.0 μM. After 2 h, the reactions were stopped by the addition of 5 μL of 10% (v/v) LC-MS grade formic acid (Fisher Scientific) to a final concentration of 1% (v/v). Product analyses were performed by liquid chromatography-mass spectrometry (LC-MS) using an Agilent 1290 infinity II LC system equipped with an Agilent 1290 multisampler and an Agilent 1290 high speed pump and connected to an Agilent 6550 accurate mass iFunnel quadrupole time of flight (Q-TOF) mass spectrometer. 1 μL of the reaction mixture was injected onto a 1.8 μm × 2.1 × 50 mm ZORBAX RRHD Eclipse Plus C18 column (Agilent). Solvent A consisted of HPLC grade water containing 0.1% (v/v) formic acid and solvent B consisted of MeCN containing 0.1% (v/v) formic acid. Peptides were separated using a stepwise gradient (0 min – 95% solvent A, 1.0 min – 80% solvent A, 3.0 min – 45% solvent A, 4.0 min – 45% solvent A, 5.0 min – 0% solvent A, 6.0 min – 0% solvent A, 7.0 min – 95% solvent A). This was followed by a 3 min post-run with 95% solvent A to re-equilibrate the column. All flow rates were 0.2 mL min^−1. A blank injection of HPLC grade water was carried out between each sample injection.

KDM3C = experiment: LC-MS demethylation activity assay, KDM3C; type: biochemical, human; details: 2 μM KDM, 10 μM H1/H3 peptide, 10 μM FAS, 100 μM LAA, 20 μM 2OG, 50 mM HEPES pH 7.5, 2 h, room temperature; for KDM3C demethylation activity, D: D (di-) initial methylation state
Description: as §1, §2, §3

KDM6B = experiment: LC-MS demethylation activity assay, KDM6B; type: biochemical, human; details: 2 μM KDM, 10 μM H1/H3 peptide, 10 μM FAS, 100 μM LAA, 20 μM 2OG, 50 mM HEPES pH 7.5, 2 h, room temperature; for KDM6B demethylation activity, D: D (di-) initial methylation state
Description: as §1, §2, §3

KDM3B = experiment: LC-MS demethylation activity assay, KDM3B; type: biochemical, human; details: 2 μM KDM, 10 μM H1/H3 peptide, 10 μM FAS, 100 μM LAA, 20 μM 2OG, 50 mM HEPES pH 7.5, 2 h, room temperature; for KDM3B demethylation activity, D: D (di-) initial methylation state
Description: as §1, §2, §3

KDM4D = target: T1, KDM4D (Homo sapiens, UniProt Q6B0I6); experiment: LC-MS demethylation activity assay, KDM4D; type: biochemical; details: room temperature; for KDM4D demethylation activity, D: D (di-) initial methylation state
T1 construct: KDM4AM1-L359,[38]; KDM4DM1-L359,[39]; KDM4EM1-R336,[30]; His6 (N); made in house; host or cells: Escherichia coli
T1 sequence (Q6B0I6 1-359): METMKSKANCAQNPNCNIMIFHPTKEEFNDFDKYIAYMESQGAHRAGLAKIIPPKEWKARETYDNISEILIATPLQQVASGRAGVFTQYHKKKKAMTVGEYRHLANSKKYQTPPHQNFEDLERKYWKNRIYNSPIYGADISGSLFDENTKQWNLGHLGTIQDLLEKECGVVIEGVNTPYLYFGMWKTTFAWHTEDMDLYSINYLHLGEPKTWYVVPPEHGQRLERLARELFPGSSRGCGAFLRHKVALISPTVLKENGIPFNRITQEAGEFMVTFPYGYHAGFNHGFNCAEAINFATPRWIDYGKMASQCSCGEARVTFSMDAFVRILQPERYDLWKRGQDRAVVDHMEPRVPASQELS
Description: as §1, §2, §3

KDM4A = experiment: LC-MS demethylation activity assay, KDM4A; type: biochemical, human; details: 10 μM FAS, 100 μM LAA, 20 μM 2OG, room temperature; for KDM4A demethylation activity, D: D (di-) initial methylation state
Description: as §1, §2, §3

KDM5D = experiment: LC-MS demethylation activity assay, KDM5D; type: biochemical, human; details: 2 μM KDM, 10 μM H1/H3 peptide, 10 μM FAS, 100 μM LAA, 20 μM 2OG, 50 mM HEPES pH 7.5, 2 h, room temperature; for KDM5D demethylation activity, D: D (di-) initial methylation state
Description: as §1, §2, §3

KDM4E = target: T2, KDM4E (Homo sapiens, UniProt B2RXH2); experiment: LC-MS demethylation activity assay, KDM4E; type: biochemical; details: room temperature; for KDM4E demethylation activity, D: D (di-) initial methylation state
T2 construct: KDM4DM1-L359,[39]; KDM4EM1-R336,[30]; His6 (N); made in house; host or cells: Escherichia coli
T2 sequence (B2RXH2 1-336): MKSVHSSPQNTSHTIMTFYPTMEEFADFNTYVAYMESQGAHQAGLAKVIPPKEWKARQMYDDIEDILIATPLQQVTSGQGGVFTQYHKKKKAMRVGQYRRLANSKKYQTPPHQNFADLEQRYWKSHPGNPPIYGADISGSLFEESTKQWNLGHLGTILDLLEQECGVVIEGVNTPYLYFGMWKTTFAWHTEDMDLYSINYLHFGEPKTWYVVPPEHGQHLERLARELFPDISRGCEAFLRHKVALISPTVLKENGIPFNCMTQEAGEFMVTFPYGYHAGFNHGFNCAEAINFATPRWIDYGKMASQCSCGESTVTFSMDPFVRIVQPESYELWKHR
Description: as §1, §2, §3

[1] = T (tri-) initial methylation state
[2] = 2 μM KDM4D, 10 μM peptide, standard conditions, 2 h
[3] = 2 μM KDM, 10 μM H1/H3 peptide, 10 μM FAS, 100 μM LAA, 20 μM 2OG, 50 mM HEPES pH 7.5, 2 h, T (tri-) initial methylation state
[4] = 2 μM KDM, 10 μM H1/H3 peptide, 10 μM FAS, 100 μM LAA, 20 μM 2OG, 50 mM HEPES pH 7.5, 2 h
[5] = 2 μM KDM, 10 μM H1/H3 peptide, 50 mM HEPES pH 7.5, 2 h
[6] = M (mono-) initial methylation state

KDM4D demethylation activity, in words (KDM4D; [2]): No activity was observed
di-methylated product formed by KDM4D (KDM4D; [2]): < 5%
KDM4D demethylation activity, T (KDM4D; [3]): ● [red]
KDM4E demethylation activity, T (KDM4E; [3]): ● [red]
Substance: KKKAT[Lys(Me3)]KAAGAGAAK [Peptide H1.5K25me3, 15-mer linker histone H1.5 residues 20-34 peptide, tri-methylated K25]
KDM3A demethylation activity, T (KDM3A; [1]): ● [red]
KDM3C demethylation activity, T (KDM3C; [1]): ● [red]
KDM6B demethylation activity, T (KDM6B; [1]): ● [red]
KDM3B demethylation activity, T (KDM3B; [1]): ● [red]
substrate conversion (demethylation) by KDM4A (KDM4A; 2 μM KDM4A, 10 μM peptide, HEPES pH 7.5, 2 h): < 10%
KDM4A demethylation activity, T (KDM4A; 2 μM KDM, 10 μM H1/H3 peptide, 50 mM HEPES pH 7.5, 2 h, T (tri-) initial methylation state): ● [yellow] (yellow dots indicate moderate demethylation (<50% conversion))
KDM5D demethylation activity, T (KDM5D; [1]): ● [red]

KDM4D demethylation activity, D (KDM4D; [4]): ● [red]
KDM4E demethylation activity, D (KDM4E; [4]): ● [red]
Substance: KKKAT[Lys(Me2)]KAAGAGAAK [Peptide H1.5K25me2, 15-mer linker histone H1.5 residues 20-34 peptide, di-methylated K25]
KDM3A demethylation activity, D (KDM3A): ● [red]
KDM3C demethylation activity, D (KDM3C): ● [red]
KDM6B demethylation activity, D (KDM6B): ● [red]
KDM3B demethylation activity, D (KDM3B): ● [red]
KDM4A demethylation activity, D (KDM4A; [5]): ● [red]
KDM5D demethylation activity, D (KDM5D): ● [red]

substrate conversion (demethylation) by KDM4D (KDM4D; 2 μM KDM4D, 10 μM peptide, 10 μM FAS, 100 μM LAA, 20 μM 2OG, HEPES pH 7.5, 2 h): 20–35%
KDM4D demethylation activity, D (KDM4D; [4]): ● [red]
mono-methylated product formed by KDM4E (KDM4E; 2 μM KDM4E, 10 μM peptide, standard conditions, 2 h): ~64%
KDM4E demethylation activity, D (KDM4E; [4]): ● [red]
Substance: KKKAA[Lys(Me2)]KAGGTPRKA [Peptide H1.2K25me2, 15-mer linker histone H1.2 residues 20-34 peptide, di-methylated K25]
KDM3A demethylation activity, D (KDM3A): ● [red]
KDM3C demethylation activity, D (KDM3C): ● [red]
KDM6B demethylation activity, D (KDM6B): ● [red]
KDM3B demethylation activity, D (KDM3B): ● [red]
KDM4A demethylation activity, D (KDM4A; [5]): ● [black] (black dots indicate low-level demethylation (<10% conversion))
KDM5D demethylation activity, D (KDM5D): ● [red]

Substance: KKKARKmeSAGAAKRKA [Peptide H1.4K25me, 15-mer linker histone H1.4 residues 20-34 peptide, mono-methylated K25]
KDM3A demethylation activity, M (KDM3A; [6]): ● [red]
KDM3C demethylation activity, M (KDM3C; [6]): ● [red]
KDM6B demethylation activity, M (KDM6B; [6]): ● [red]
KDM3B demethylation activity, M (KDM3B; [6]): ● [red]
KDM4D demethylation activity, M (KDM4D; 2 μM KDM, 10 μM H1/H3 peptide, 10 μM FAS, 100 μM LAA, 20 μM 2OG, 50 mM HEPES pH 7.5, 2 h, M (mono-) initial methylation state): ● [black] (black dots indicate low-level demethylation (<10% conversion))
KDM4A demethylation activity, M (KDM4A; 2 μM KDM, 10 μM H1/H3 peptide, 50 mM HEPES pH 7.5, 2 h, M (mono-) initial methylation state): ● [red]
KDM5D demethylation activity, M (KDM5D; [6]): ● [red]
